Results on 41 compounds are retold here after ChEMBL document CHEMBL3507680, “University of Dundee, Gates Library screen for HepG2 cell viability”.

A short description of this data set: Human HepG2 cell viability assay in 384 well format. Further details: dose 125 nL, time 70.5 hour; cytotoxicity at 70.5 h: concentration not given beside the values. The settings on record: HepG2 cells, read-out: Inhibition. Format: toxicity, cell-based.
With `CN(CCOc1ccccc1Cl)S(=O)(=O)N1CCOCC1`, the cytotoxicity at 70.5 h was -7.93%. Turning to `CC(NC(=O)c1ccoc1)C(=O)N(C)Cc1ccsc1` (stereo unspecified), the cytotoxicity at 70.5 h is -5.45%.

Take `CCNC(=O)C(C)(C)NC(=O)NCc1cccc(Br)c1`: the cytotoxicity at 70.5 h was -8.53%.

`COc1cc(C#N)ccc1OCC(=O)N(C1CC1)C(C)c1ccco1` (stereo unspecified): the cytotoxicity at 70.5 h is -9.56%. For `COCCNC(=O)N1CCN(C(C)C(=O)NC(C)C)CC1` (stereo unspecified) the value was -5.13%; for `Cc1ccc(=O)n(Cc2nc(C(C)OCC(C)C)no2)n1` (stereo unspecified), 3.26%. Regarding `CC(C)(NS(C)(=O)=O)C(=O)NCc1cccc(Br)c1`, the cytotoxicity at 70.5 h was -7.07%. For `COCCNC(=O)N1CCN(C(C)C(=O)NC2CCCC2)CC1` (stereo unspecified) the value was -5.61%; for `CCC(CC)c1cc(C(=O)N2CCN(C(C)C(N)=O)CC2)on1` (stereo unspecified), -7.02%.

On to `CCOc1nnc(CN2CCCC(c3nc4ccccc4[nH]3)C2)s1` (stereo unspecified), for which the cytotoxicity at 70.5 h was -3.56%. To `CN(CC(=O)Nc1cc(-n2nnnc2C2CC2)ccc1F)C1CCC1` belongs -8.29%; to `CN1CCOC(C(=O)Nc2nc(-c3ccc4c(c3)CCC4)n[nH]2)C1` (stereo unspecified), -6.75%; to `CC(Cc1ccco1)NS(=O)(=O)N1CCCCCC1` (stereo unspecified), -8.2%. In the case of `CC(CN1CCCC1=O)NC(=O)Nc1ccccc1Cn1cccn1` (stereo unspecified), the cytotoxicity at 70.5 h is -5.84%. For `CC(CN1CCCC1=O)NC(=O)Nc1cccnc1-n1cccn1` (stereo unspecified) the value was 35.4%. `Cc1cc(-n2c(C)cn(CN(C)C3CCS(=O)(=O)C3)c2=O)no1` (stereo unspecified): the cytotoxicity at 70.5 h is -14.6%. To `COC(=O)[C@H](C)NC(=O)c1nc(C2CC2)n(-c2ccccc2Cl)n1` belongs -11.3%; to `CN(C)C(=O)CNC(=O)c1nc(C2CC2)n(-c2ccccc2Cl)n1`, -13.7%; to `Cc1ccc(C2CSCCN2C(=O)c2cccnc2)cc1` (stereo unspecified), -9.38%. Regarding `CNC(=O)Cc1ccc(NC(=O)NC2(c3cccc(F)c3)CC2)cc1`, the cytotoxicity at 70.5 h was -3.37%. `CC(O)CCN(C)C(=O)Nc1ccc(Br)cc1` (stereo unspecified): the cytotoxicity at 70.5 h came out at 26.9%. To `CCC(C)(C)C(=O)Nc1ccc2ccn(CC(=O)NC)c2c1` belongs -0.594%; to `CNC(=O)Cn1ccc2ccc(NC(=O)C(C)C)cc21`, -16.4%. To `COc1ccc(-n2cc(CNC(=O)c3ccccn3)nn2)cc1` belongs -8.76%; to `CN(CC(O)C1CC1)C(=O)Nc1cc(F)cc(Br)c1` (stereo unspecified), 26.3%. In the case of `CNC(=O)Cn1ccc2ccc(NC(=O)NC(C)C(C)C)cc21` (stereo unspecified), the cytotoxicity at 70.5 h is -9.08%.

On to `O=S1(=O)CCN(CCCc2ccc(Cl)cc2)CC1`, for which the cytotoxicity at 70.5 h was -6.76%. Take `CNC(=O)C(C)CN(C)C(=O)Nc1cc(F)cc(Br)c1` (stereo unspecified): the cytotoxicity at 70.5 h is 1.41%. To `Clc1ccc(C(CNCc2ccncc2)n2cccn2)cc1` (stereo unspecified) belongs -1.54%; to `CC(CN1CCCC1=O)NC(=O)NCc1ccccc1-n1cccn1` (stereo unspecified), -11.4%.

Regarding `CC(=O)Nc1ccc(SCC(O)COCc2ccccc2)cc1` (stereo unspecified), the cytotoxicity at 70.5 h is -12.4%. Regarding `OCCN(Cc1ccno1)Cc1cc(Br)ccc1F`, the cytotoxicity at 70.5 h is -14.1%.

On to `CCOCC1CCN(C(=O)C(c2c(F)cccc2F)N(C)C)CC1` (stereo unspecified), for which the cytotoxicity at 70.5 h came out at 0.534%. For `O=C1CC[C@H](C(=O)N(CCc2ccccc2)C2CCOC2)N1` (stereo partly specified) the value was 24.8%; for `OCCOCCN1CCCC1c1cccc(Cl)c1` (stereo unspecified), -3.17%. On to `CC(NC1(CNS(=O)(=O)N(C)C)CCCC1)c1ccccc1` (stereo unspecified), for which the cytotoxicity at 70.5 h was -13.2%. To `CC(SCCC(=O)NC(N)=O)c1ccccc1F` (stereo unspecified) belongs -7.35%; to `CC(SCCC(=O)NC(N)=O)c1ccc(F)cc1F` (stereo unspecified), -14.8%; to `CCCC1CCCN(C(=O)CNC(=O)c2ccoc2C)CC1` (stereo unspecified), -18.9%. To `CC(C)c1noc(CCC(=O)NCC(c2ccco2)N2CCCC2)n1` (stereo unspecified) belongs -7.17%; to `Cc1ccc(-c2nnc(NC(=O)c3ccn(C)c(=O)c3)[nH]2)s1`, -19.1%.
